Data on three compounds can be found in patent US11286281B2, “Homodetic cyclic peptides targeting alpha-4-beta-7 integrin” (priority 2017, dated 2022).

Several values for one entry are separate records, joined by “and”; a condition that tells them apart may be missing. Equal values may be shown once. Numbered stars: 1 amine (or outer) side, 2 acyl side, 3 side chain; on linkers, the order of the positions; unused ones are H or OH. Square brackets hold non-standard residues; d marks the D form. Peptide text beside a SMILES is read from it. X1 = O=C(c1ccc(-c2ccc(N3CCNCC3)cc2)c(CN[*:1])c1)[*:2]

This assay deals with T1, integrin α4β7 (Homo sapiens, UniProt P13612+P26010).
T1 sequence (P13612 34-1032): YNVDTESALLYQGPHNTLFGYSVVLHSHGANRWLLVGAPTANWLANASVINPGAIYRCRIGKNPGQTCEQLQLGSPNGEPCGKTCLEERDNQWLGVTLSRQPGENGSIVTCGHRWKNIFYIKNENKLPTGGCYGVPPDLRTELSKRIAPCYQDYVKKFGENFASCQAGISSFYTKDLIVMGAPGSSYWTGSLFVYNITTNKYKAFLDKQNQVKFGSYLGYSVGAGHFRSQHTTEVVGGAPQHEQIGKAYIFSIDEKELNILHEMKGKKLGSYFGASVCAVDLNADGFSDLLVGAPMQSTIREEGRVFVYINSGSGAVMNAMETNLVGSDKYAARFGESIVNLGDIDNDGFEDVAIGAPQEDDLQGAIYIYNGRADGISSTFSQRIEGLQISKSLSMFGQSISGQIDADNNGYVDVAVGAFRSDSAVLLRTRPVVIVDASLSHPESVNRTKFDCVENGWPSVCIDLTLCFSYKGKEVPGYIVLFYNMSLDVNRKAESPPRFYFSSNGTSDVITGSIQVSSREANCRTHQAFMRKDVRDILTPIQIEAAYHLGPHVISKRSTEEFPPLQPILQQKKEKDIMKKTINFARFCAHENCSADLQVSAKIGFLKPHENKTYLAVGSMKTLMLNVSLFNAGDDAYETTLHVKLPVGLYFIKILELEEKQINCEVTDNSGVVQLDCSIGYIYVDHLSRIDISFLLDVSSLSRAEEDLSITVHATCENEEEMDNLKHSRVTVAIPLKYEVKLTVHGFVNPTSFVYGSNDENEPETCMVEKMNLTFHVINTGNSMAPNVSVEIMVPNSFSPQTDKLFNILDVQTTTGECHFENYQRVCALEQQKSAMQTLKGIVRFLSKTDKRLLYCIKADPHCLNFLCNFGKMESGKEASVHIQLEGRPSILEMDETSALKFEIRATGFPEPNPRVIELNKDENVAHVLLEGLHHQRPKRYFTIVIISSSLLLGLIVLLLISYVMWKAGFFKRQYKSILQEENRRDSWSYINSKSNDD
T1 sequence (P26010 20-798): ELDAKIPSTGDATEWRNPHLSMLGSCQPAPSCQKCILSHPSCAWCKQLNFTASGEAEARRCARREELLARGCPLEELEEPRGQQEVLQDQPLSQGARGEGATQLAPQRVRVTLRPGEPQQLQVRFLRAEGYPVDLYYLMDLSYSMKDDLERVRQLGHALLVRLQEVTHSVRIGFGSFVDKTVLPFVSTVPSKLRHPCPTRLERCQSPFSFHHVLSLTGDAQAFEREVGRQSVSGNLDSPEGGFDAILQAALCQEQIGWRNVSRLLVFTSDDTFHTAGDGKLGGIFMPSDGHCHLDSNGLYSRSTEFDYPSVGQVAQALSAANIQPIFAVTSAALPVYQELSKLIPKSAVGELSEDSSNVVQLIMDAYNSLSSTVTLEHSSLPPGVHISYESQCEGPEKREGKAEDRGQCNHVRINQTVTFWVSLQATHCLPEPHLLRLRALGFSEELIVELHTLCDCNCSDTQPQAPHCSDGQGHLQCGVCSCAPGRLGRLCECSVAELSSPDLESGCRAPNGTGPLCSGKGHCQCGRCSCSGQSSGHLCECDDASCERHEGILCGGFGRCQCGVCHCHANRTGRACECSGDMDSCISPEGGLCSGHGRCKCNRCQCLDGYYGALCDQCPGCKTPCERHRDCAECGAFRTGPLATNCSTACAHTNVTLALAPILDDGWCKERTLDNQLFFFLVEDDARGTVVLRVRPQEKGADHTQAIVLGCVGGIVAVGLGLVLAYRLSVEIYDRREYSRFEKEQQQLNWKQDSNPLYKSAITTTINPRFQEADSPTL
Put plainly: Integrin α4β7-MAdCAM human cell adhesion assay (RPMI8866 cells). Type of assay: cell-based. The arrangement: host or cells: RPMI8866 human cells. The conditions noted are these: for IC50: adhesion of RPMI8866 cells to MAdCAM-1 coated plates. How it is done: RPM18866 human cells (Sigma #95041316) were cultured in RPMI 1640 medium (HyClone SH30027.1) supplemented with 10% FBS (Seradigm) and 1% Penicillin-Streptomycin. […] RPM18866 cells were resuspended at 10 million cells/ml in PBS containing […] and incubated at 37° C. for 30 min in a 50 ml tube. […] The plate was emptied by inverting and blotting on paper towels and washed manually twice with PBS. 100 μl PBS was then added to each well. The fluorescence was read (Ex495/Em515) using a plate reader (Tecan Infinite 1000). To calculate the dose response, the fluorescence value of control wells not containing cells was subtracted from each test well.

What is called IC50 is the midpoint of a concentration-inhibition curve. A low value points to inhibition by little substance. `CC(C)C[C@@H]1NC(=O)c2ccc(-c3ccc(N4CCNCC4)cc3)c(c2)CNC(=O)[C@@H]2CCCN2C(=O)[C@H](C)NC(=O)[C@H]([C@@H](C)O)NC(=O)[C@H](CC(=O)O)NC1=O` [Compound 8] (cyclo(P[X1]LDTA)): the IC50 is ~0.202 µM and 0.202 µM. The “fold difference in IC50 between RAMOS and RPMI8866 cell adhesion assays, in favor of integrin α4β7” value (RAMOS (α4β1) versus RPMI8866 (α4β7)) was found to be 2.2 fold.
As to `CC(C)C[C@@H]1NC(=O)c2ccc(-c3ccc(N4CCN(C(=O)COCC(=O)N5CCN(c6ccc(-c7ccc8cc7CNC(=O)[C@@H]7CCCN7C(=O)[C@H](C)NC(=O)[C@H]([C@@H](C)O)NC(=O)[C@H](CC(=O)O)NC(=O)[C@H](CC(C)C)NC8=O)cc6)CC5)CC4)cc3)c(c2)CNC(=O)[C@@H]2CCCN2C(=O)[C@H](C)NC(=O)[C@H]([C@@H](C)O)NC(=O)[C@H](CC(=O)O)NC1=O` [Compound 17], the concentration for half-maximal inhibition (IC50) was ~0.019 µM.
Turning to `CC(C)C[C@@H]1NC(=O)c2ccc(-c3ccc(N4CCN(Cc5cccc(CN6CCN(c7ccc(-c8ccc9cc8CNC(=O)[C@@H]8CCCN8C(=O)[C@H](C)NC(=O)[C@H]([C@@H](C)O)NC(=O)[C@H](CC(=O)O)NC(=O)[C@H](CC(C)C)NC9=O)cc7)CC6)c5)CC4)cc3)c(c2)CNC(=O)[C@@H]2CCCN2C(=O)[C@H](C)NC(=O)[C@H]([C@@H](C)O)NC(=O)[C@H](CC(=O)O)NC1=O` [Compound 18], the IC50 came out at 0.0084 µM.
